Laboratory results taken from patent publication US6699506B1, “Pharmaceutical composition with extended release of Milnacipran” (Pierre Fabre Medicament, priority 1996, dated 2004).
Converted amounts (≈) assume the structure as drawn.

How the values were obtained:
noradrenaline = settings: cited from earlier work
physchem = settings: water, aqueous solubility
serotonin = settings: cited from earlier work
dopamine = settings: cited from earlier work

## CCN(CC)C(=O)C1(c2ccccc2)CC1CN (stereo not shown) [Milnacipran]
In vivo
  bioavailability: > 85%
  half-life: 420 to 540 min
noradrenaline
  inhibition of the capture of noradrenaline: mixed inhibition
physchem
  solubility: 800 mg/mL (≈ 3250 mM)
serotonin
  inhibition of the capture of serotonin: mixed inhibition
dopamine
  effect on dopamine: no effect

## CCN(CC)C(=O)[C@@]1(c2ccccc2)C[C@H]1CN [dextrorotatory form]
Activity of the isomers
  activity of isomeric forms: more active than the levorotatory form
